Several values for one entry are separate records, joined by “and”; a condition that tells them apart may be missing. Equal values may be shown once.
Tested on: 883617-216-R-J1-PDC complex spheroids, growth, % test/control
Test: Anticancer human tumor 883617-216-R-J1-PDC patient-derived bladder carcinoma cell line growth inhibition [AhR]
Details: for viability, T/C: stronger effect = lower value
Procedure, shortened: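 Complex tumor spheroids co-cultured with HUVEC and human MSC stroma; AhR antagonists tested in combination with standard-of-care and investigational agents. Top concentration at or near clinical Cmax (else 10 microM), half-log dilutions; growth expressed as percent test/control.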

[1] = curve of first compound, second compound 0.1 µM
[2] = curve of first compound, second compound 0.316 µM
[3] = curve of first compound, second compound 1 µM
[4] = curve of first compound, second compound 3.16 µM
[5] = curve of first compound, second compound 10 µM
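Further: exposure lasted 7 days after dosing on day 3 of spheroid growth.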

CCN(c1cc(-c2ccc(CN3CCOCC3)cc2)cc(C(=O)NCc2c(C)cc(C)[nH]c2=O)c1C)C1CCOCC1 + Cc1cncc(-c2nc(NCCc3c[nH]c4ccccc34)c3ncn(C(C)C)c3n2)c1
IC50 [1]: > 3 µM | IC50 [2]: > 3 µM | IC50 [3]: > 3 µM | IC50 [4]: > 3 µM | IC50 [5]: < 0.00949 µM | viability, T/C (second compound 0.1 µM, first compound 0.00949 µM): 93.3% | viability, T/C (second compound 0.1 µM, first compound 0.03 µM): 109% | viability, T/C (second compound 0.1 µM, first compound 0.0949 µM): 94.1% | viability, T/C (second compound 0.1 µM, first compound 0.3 µM): 96.6% | viability, T/C (second compound 0.1 µM, first compound 0.949 µM): 98.2% | viability, T/C (second compound 0.1 µM, first compound 3 µM): 91.6% | viability, T/C (second compound 0.316 µM, first compound 0.00949 µM): 103% | viability, T/C (second compound 0.316 µM, first compound 0.03 µM): 94.4% | viability, T/C (second compound 0.316 µM, first compound 0.0949 µM): 97.1% | viability, T/C (second compound 0.316 µM, first compound 0.3 µM): 96.2% | viability, T/C (second compound 0.316 µM, first compound 0.949 µM): 98.6% | viability, T/C (second compound 0.316 µM, first compound 3 µM): 96.4% | viability, T/C (second compound 1 µM, first compound 0.00949 µM): 103% | viability, T/C (second compound 1 µM, first compound 0.03 µM): 102% | viability, T/C (second compound 1 µM, first compound 0.0949 µM): 110% | viability, T/C (second compound 1 µM, first compound 0.3 µM): 105% | viability, T/C (second compound 1 µM, first compound 0.949 µM): 97.8% | viability, T/C (second compound 1 µM, first compound 3 µM): 107% | viability, T/C (second compound 3.16 µM, first compound 0.00949 µM): 93.7% | viability, T/C (second compound 3.16 µM, first compound 0.03 µM): 102% | viability, T/C (second compound 3.16 µM, first compound 0.0949 µM): 112% | viability, T/C (second compound 3.16 µM, first compound 0.3 µM): 96.5% | viability, T/C (second compound 3.16 µM, first compound 0.949 µM): 107% | viability, T/C (second compound 3.16 µM, first compound 3 µM): 110% | viability, T/C (second compound 10 µM, first compound 0.00949 µM): 52.3% | viability, T/C (second compound 10 µM, first compound 0.03 µM): 46.9% | viability, T/C (second compound 10 µM, first compound 0.0949 µM): 47.2% | viability, T/C (second compound 10 µM, first compound 0.3 µM): 43.2% | viability, T/C (second compound 10 µM, first compound 0.949 µM): 27.3% | viability, T/C (second compound 10 µM, first compound 3 µM): 15.5%

Nc1ccn(C2OC(CO)C(O)C2(F)F)c(=O)n1 (stereo not drawn)
viability, T/C (compound 0.0316 µM): 28.9% and 105% and 26.2% | viability, T/C (compound 0.1 µM): 28.2% and 135% and 27.1% | viability, T/C (compound 0.316 µM): 32% and 64% and 25.9% | viability, T/C (compound 1 µM): 37% and 80.2% and 30.9% | viability, T/C (compound 3.16 µM): 40.3% and 118% and 35.9% | viability, T/C (compound 10 µM): 37.1% and 79.3% and 35.7%

COc1cccc2c1C(=O)c1c(O)c3c(c(O)c1C2=O)CC(O)(C(=O)CO)CC3OC1CC(N)C(O)C(C)O1 (stereo not drawn) + Cc1ccccc1N=Nc1ccc(NC(=O)c2ccnn2C)c(C)c1
IC50 [1]: 0.284 µM | IC50 [2]: 0.255 µM | IC50 [3]: 0.339 µM | IC50 [4]: 0.258 µM | IC50 [5]: 0.38 µM | viability, T/C (second compound 0.1 µM, first compound 0.0316 µM): 66.5% | viability, T/C (second compound 0.1 µM, first compound 0.1 µM): 60.6% | viability, T/C (second compound 0.1 µM, first compound 0.316 µM): 48.4% | viability, T/C (second compound 0.1 µM, first compound 1 µM): 22.7% | viability, T/C (second compound 0.1 µM, first compound 3.16 µM): 0.11% | viability, T/C (second compound 0.1 µM, first compound 10 µM): 0.14% | viability, T/C (second compound 0.316 µM, first compound 0.0316 µM): 67.5% | viability, T/C (second compound 0.316 µM, first compound 0.1 µM): 61.3% | viability, T/C (second compound 0.316 µM, first compound 0.316 µM): 47.5% | viability, T/C (second compound 0.316 µM, first compound 1 µM): 16.7% | viability, T/C (second compound 0.316 µM, first compound 3.16 µM): 0.12% | viability, T/C (second compound 0.316 µM, first compound 10 µM): 0.15% | viability, T/C (second compound 1 µM, first compound 0.0316 µM): 56.8% | viability, T/C (second compound 1 µM, first compound 0.1 µM): 63.4% | viability, T/C (second compound 1 µM, first compound 0.316 µM): 51.5% | viability, T/C (second compound 1 µM, first compound 1 µM): 16.5% | viability, T/C (second compound 1 µM, first compound 3.16 µM): 0.12% | viability, T/C (second compound 1 µM, first compound 10 µM): 0.65% | viability, T/C (second compound 3.16 µM, first compound 0.0316 µM): 66.5% | viability, T/C (second compound 3.16 µM, first compound 0.1 µM): 56% | viability, T/C (second compound 3.16 µM, first compound 0.316 µM): 48.7% | viability, T/C (second compound 3.16 µM, first compound 1 µM): 11.9% | viability, T/C (second compound 3.16 µM, first compound 3.16 µM): 0.12% | viability, T/C (second compound 3.16 µM, first compound 10 µM): 0.5% | viability, T/C (second compound 10 µM, first compound 0.0316 µM): 58.6% | viability, T/C (second compound 10 µM, first compound 0.1 µM): 57.3% | viability, T/C (second compound 10 µM, first compound 0.316 µM): 57.8% | viability, T/C (second compound 10 µM, first compound 1 µM): 8.97% | viability, T/C (second compound 10 µM, first compound 3.16 µM): 0.18% | viability, T/C (second compound 10 µM, first compound 10 µM): 0.21%

COc1cccc2c1C(=O)c1c(O)c3c(c(O)c1C2=O)CC(O)(C(=O)CO)CC3OC1CC(N)C(O)C(C)O1 (stereo not drawn)
viability, T/C (compound 0.0316 µM): 70.3% and 65.3% and 99.7% | viability, T/C (compound 0.1 µM): 65.2% and 60.5% and 54.1% | viability, T/C (compound 0.316 µM): 60.8% and 58.8% and 62.2% | viability, T/C (compound 1 µM): 22.4% and 23% and 6.26% | viability, T/C (compound 3.16 µM): 0.22% and 0.36% and 3.97% | viability, T/C (compound 10 µM): 0.22% and 0.16% and 3.6% | IC50 (curve of compound): 0.436 µM and 0.42 µM and 0.211 µM

— PubChem BioAssay AID1919004 (Molecular Pharmacology Branch, DTP, NCI, 2023)
